Patent publication US20120288883A1, “PROBE REAGENT FOR MEASUREMENT OF PROTEOLYTIC ACTIVITY” (RIKEN, priority 2010, published 2012)

The substances below were run on ubiquitin-proteasome system (assay: Screening for degradation-terminating peptide: FRET fluorescence imaging of probe reagents expressed in HeLa cells). Conditions: CyPet/YPet probe with Geminin (1/110) degron.
Format: cell-based
Excerpt: In order to develop a probe reagent of interest, p105 was screened for a peptide sequence capable of terminating degradation. CyPet as a fluorescent protein I, YPet as a fluorescent protein II, and Geminin as a degron protein were used to prepare an experimental probe reagent (FIG. 2). The fluorescent protein CyPet is derived from CFP and has an excitation wavelength peak of 435 nm and a fluorescence wavelength peak of 477 nm. The fluorescent protein YPet is derived from YFP and has an excitation wavelength peak of 517 nm and a fluorescence wavelength peak of 530 nm. This pair is known to efficiently cause FRET with CyPet as a donor and YPet as an acceptor. The protein Geminin is a factor controlling the progression of cell cycle and has the function of inhibiting the licensing of DNA replication (Cell 1998; 93 (11): 1043-1053; and Am. J. Pathol. 2002; 161 (1): 267-273). Its abundance is strictly controlled during cell cycle so that its expression level increases in the S/G2/M phases and this protein disappears due to the promoted degradation by the ubiquitin-proteasome system in the G1 phase. A region of N-terminal amino acids 1-110 (Geminin (1/110)) containing a moiety necessary for the degradation of the Geminin molecule was selected from the structure of Geminin (e.g., NM_015895 (human, SEQ ID NOs: 18 and 19), NM_020567 (mouse)) and used in this experiment.
The respective cDNAs of these molecules were amplified by PCR and ligated by insertion to each restriction enzyme site in the multicloning site of a cloning vector pBluescript II SK(+) (Stratagene) to prepare gene DNA of the probe reagent. A region of amino acids 366-440 in human-derived p105 (SEQ ID NOs: 16 and 17) was screened for a peptide sequence for terminating degradation. This region contains GRR and processing point.
The prepared gene DNA of the probe reagent was then excised from the pBlueScript vector with restriction enzymes, and this fragment was inserted into the multicloning site of an expression vector CSII-EF-MCS to prepare a vector for expression in cultured cells.
HeLa cells were cultured in a Dulbecco's modified Eagle's medium containing 10% fetal bovine serum in a 35 mmφ glass-bottomed dish. The prepared vector plasmid was mixed with a transfection reagent FuGENE (Roche Applied Science) and added to the medium. The HeLa cells were cultured in a CO2 incubator for 2 days so that the cells expressed the probe reagent and experienced cell cycle.
This is because the intramolecular nuclear localization signal of the Geminin protein, which functions in the nucleus, allowed the probe reagent to be selectively incorporated into the nucleus. The amount of Geminin changes periodically depending on the promoted or suppressed degradation by the ubiquitin-proteasome system in accordance with cell cycle. If the degradation of the probe reagent accompanying the degradation of Geminin is terminated by the degradation-terminating peptide, CyPet accumulates in the cell during every cell cycle without being degraded and thus reduces an YPet/CyPet fluorescence intensity ratio serving as an index value for FRET at the time of CyPet excitation. After the degradation of Geminin, the probe reagent lacks the nuclear localization signal. As a result, the remaining CyPet molecule also becomes distributed in the cytoplasm. The cells were fluorescently imaged from these viewpoints and screened for a peptide capable of terminating degradation.
An inverted microscope (IX70, Olympus Corp.) was used in cell observation. Fluorescence images were obtained using a 3-CCD cooled color camera (ORCA-3CCD, Hamamatsu Photonics K.K.). This camera can simultaneously capture images in three wavelength (red, green, and blue) regions and merge them to form observable color images. Also, it can individually measure the brightness of the image in each wavelength region. After excitation with a 440 nm band-pass filter, the fluorescence images of the cells were obtained through a 460 nm long-pass filter. […]
“GRR: glycine-rich region, amino acids 376-404 of human p105, tested alone as degradation-terminating peptide” was tested, and the “ability of the peptide to terminate degradation of the probe reagent” value (from here on “ability of the peptide”) was “failed to terminate the degradation”. “p105 (376/409): probe reagent containing human p105 amino acids 376-409 (SEQ ID NO: 11) (GGGSGAGAGGGGMFGSGGGGGGTGSTGPGYSFPH; listed as Homo sapiens)” was tested, and the “ability of the peptide” value was “capable of efficiently terminating protein degradation”. “p105 (376/420): probe reagent containing human p105 amino acids 376-420 (SEQ ID NO: 9) (GGGSGAGAGGGGMFGSGGGGGGTGSTGPGYSFPHYGFPTYGGITF; listed as Homo sapiens)” was tested, and the “ability of the peptide” value was “capable of efficiently terminating protein degradation”. “p105 (376/434): probe reagent containing human p105 amino acids 376-434 (SEQ ID NO: 7) (GGGSGAGAGGGGMFGSGGGGGGTGSTGPGYSFPHYGFPTYGGITFHPGTTKSNAGMKHG; listed as Homo sapiens)” was tested, and the “ability of the peptide” value was “capable of efficiently terminating protein degradation”. In the case of “p105 (382/440): probe reagent containing human p105 amino acids 382-440 (SEQ ID NO: 3) (GAGGGGMFGSGGGGGGTGSTGPGYSFPHYGFPTYGGITFHPGTTKSNAGMKHGTMDTES; listed as Homo sapiens)”, the “ability of the peptide” value is reported as “capable of efficiently terminating protein degradation”. For “p105 (392/440): probe reagent containing human p105 amino acids 392-440 (SEQ ID NO: 5) (GGGGGGTGSTGPGYSFPHYGFPTYGGITFHPGTTKSNAGMKHGTMDTES; listed as Homo sapiens)”, the “ability of the peptide” value was “capable of efficiently terminating protein degradation”.
